Experimental data reported in patent US4514414A, “N-Substituted pyrrolidineacetic acids and their esters” (Smithkline Beckman Corporation, priority 1982, dated 1985).

Test system: GABA uptake by a crude synaptosomal fraction (P2) of the rat brain
Assay: Inhibition of 3H-GABA uptake by crude synaptosomal fraction (P2) of rat brain
Format: biochemical
Conditions: rat brain P2 synaptosomal suspension, 37° C., 15 minutes preincubation, 1 μM 3H-GABA, incubation time 3 minutes; read-out: IC50 (concentration producing a 50% inhibition of GABA accumulation)
Method: The inhibition of GABA uptake produced by the compounds of this invention is measured by the ability of the active medicament to inhibit ^3 H-GABA uptake by a crude synaptosomal fraction (P2) of the rat brain. In this test system, aliquots of the P2 suspension are preincubated in a buffered physiological medium at 37° C. in the presence of test compound for 15 minutes. Uptake is initiated by the addition of ^3 H-GABA to a final concentration of 1 μM and terminated by filtration through a 0.45 um Millipore filter. Incubation time is 3 minutes. A compound producing a 50% or greater inhibition of GABA uptake at concentrations of 10 μM is considered to show biosignificant activity. The IC50 value is the concentration of a compound producing a 50% inhibition of GABA accumulation.

## O=C(O)CC1CCN(CCC=C(c2ccccc2)c2ccccc2)C1 (stereo not shown) [1-(4,4-diphenyl-3-butenyl)-3-pyrrolidineacetic acid]
  IC50: 0.121 µM
